We go through 16 molecules from US20230174492A1, “SUBSTITUTED CONDENSED AZINES AS ANTHELMINTIC COMPOUNDS” (Bayer Animal Health GmbH, priority 2020, published 2023).

Bounds are passed on as bounds.

Assay type in all cases: cell-based
The test system of assay [1] is Nippostrongylus brasiliensis. In words: In Vitro Assay 3: Nippostrongylus brasiliensis (NIPOBR), acetylcholine esterase readout. As to conditions: adult worms, read-out: activity (reduction of AChE compared to negative control); for inhibition at 1 µg/mL: at 1 μg/ml; for inhibition at 10 µg/mL: at 10 μg/ml. As for the experimental part:
In Vitro Assay 3: Nippostrongylus brasiliensis (NIPOBR)
Adult Nippostrongylus brasiliensis are washed with saline buffer containing 100 U/ml penicillin, 0.1 mg/ml streptomycin and 2.5 μg/ml amphotericin B. Test compounds are dissolved in DMSO and worms are incubated in medium in a final concentration of 10 μg/ml (10 ppm) respectively 1 μg/ml (1 ppm). An aliquot of the medium is used to determine the acetylcholine esterase activity in comparison to a negative control. The principle of measuring acetylcholine esterase as readout for anthelmintic activity is described in Rapson et al (1986) and Rapson et al (1987).

Assay [2] concerns Nippostrongylus brasiliensis. The assay is described as above. The conditions noted are these: read-out: activity (reduction of AChE compared to negative control).
Assay [3] relates to Dirofilaria immitis third-stage larvae. Briefly: In Vitro Assay 5: Dirofilaria immitis (DIROIM L4), motility. As to conditions: 72 h.
The target in another assay is D. immitis Slo-1 (Dirofilaria immitis, UniProt I0DFK5). In words: In Vitro Assay 2: D. immitis Slo-1, action at a recombinant D. immitis cell line (membrane potential, FLIPR).
In assay [4] the test system is Dirofilaria immitis microfilariae. Briefly: In Vitro Assay 4: Dirofilaria immitis microfilariae (DIROIM L1), motility. As to conditions: 72 h.

Chain of D. immitis Slo-1 (I0DFK5 1-1119): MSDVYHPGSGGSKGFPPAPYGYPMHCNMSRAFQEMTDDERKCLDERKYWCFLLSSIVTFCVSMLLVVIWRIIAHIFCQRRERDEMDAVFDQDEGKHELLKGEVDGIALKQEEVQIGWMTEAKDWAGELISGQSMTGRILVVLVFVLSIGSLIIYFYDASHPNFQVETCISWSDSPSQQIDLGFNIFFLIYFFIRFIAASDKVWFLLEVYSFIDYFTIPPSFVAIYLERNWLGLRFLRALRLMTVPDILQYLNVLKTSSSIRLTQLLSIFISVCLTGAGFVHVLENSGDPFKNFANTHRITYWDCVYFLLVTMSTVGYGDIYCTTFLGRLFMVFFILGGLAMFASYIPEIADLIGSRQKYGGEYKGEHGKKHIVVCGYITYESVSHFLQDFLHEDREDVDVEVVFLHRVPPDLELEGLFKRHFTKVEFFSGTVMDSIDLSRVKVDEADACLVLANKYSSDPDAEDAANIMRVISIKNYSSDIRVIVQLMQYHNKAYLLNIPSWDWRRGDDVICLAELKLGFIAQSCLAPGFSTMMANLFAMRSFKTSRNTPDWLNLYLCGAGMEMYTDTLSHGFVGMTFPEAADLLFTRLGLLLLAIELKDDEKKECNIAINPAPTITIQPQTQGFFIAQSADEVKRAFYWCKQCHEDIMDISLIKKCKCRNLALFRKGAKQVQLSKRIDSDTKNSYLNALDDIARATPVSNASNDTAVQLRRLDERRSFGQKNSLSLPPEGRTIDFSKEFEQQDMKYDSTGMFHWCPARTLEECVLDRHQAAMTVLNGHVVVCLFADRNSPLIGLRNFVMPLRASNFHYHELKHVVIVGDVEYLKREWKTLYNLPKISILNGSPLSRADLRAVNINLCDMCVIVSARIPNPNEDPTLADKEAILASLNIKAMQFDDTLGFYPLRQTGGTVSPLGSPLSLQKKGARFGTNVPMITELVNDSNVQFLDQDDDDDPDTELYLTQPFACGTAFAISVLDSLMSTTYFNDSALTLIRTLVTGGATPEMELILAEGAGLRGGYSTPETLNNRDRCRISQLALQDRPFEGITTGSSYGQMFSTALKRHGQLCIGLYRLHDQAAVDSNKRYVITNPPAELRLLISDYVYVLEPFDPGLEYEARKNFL

A word on the EC50: it is the midpoint of the concentration-response curve. In the case of `CN(C)c1c(NC(=O)C2CCOc3ccccc32)cnc2c(-c3cc(F)cc(F)c3F)cccc12` (racemic) [Example 5, N-(4-(Dimethylamino)-8-(2,3,5-trifluorophenyl)quinolin-3-yl)chroman-4-carboxamide], the inhibition at 1 µg/mL in assay [1] was over 80%. Moreover, the inhibition at 10 µg/mL in assay [1] was over 80%. Also, in assay [2], the inhibition at 0.1 µg/mL is over 80%. For the same molecule, the figures for the EC50 (in assay [3]; at D. immitis Slo-1; in assay [4]) were under 0.1 µg/mL, 100 to 1000 nM and under 0.1 µg/mL, respectively.
Turning to `CN(C)c1c(NC(=O)C2CCc3ccccc32)cnc2c(-c3cc(F)cc(F)c3F)cccc12` (racemic) [Example 6, N-(4-(Dimethylamino)-8-(2,3,5-trifluorophenyl)quinolin-3-yl)-2,3-dihydro-1H-indene-1-carboxamide], the EC50 was under 0.1 µg/mL in assay [3], 100 to 1000 nM on D. immitis Slo-1 and under 0.1 µg/mL in assay [4].
Consider `O=C(Nc1cnc2c(-c3cc(F)cc(F)c3F)cccc2c1N1CCOCC1)C1CCOc2ccccc21` (racemic) [Example 7, N-(4-Morpholino-8-(2,3,5-trifluorophenyl)quinolin-3-yl)chroman-4-carboxamide], for which the inhibition at 1 µg/mL in assay [1] is over 80%. For the same molecule, the inhibition at 10 µg/mL in assay [1] was over 80%. Further, the EC50 in assay [3] is under 0.1 µg/mL; at D. immitis Slo-1, 10 to 100 nM; in assay [4], under 0.1 µg/mL.
On to `CCc1c(NC(=O)C2CCOc3ccccc32)cnc2c(-c3cc(F)cc(F)c3F)cccc12` (racemic) [Example 8, N-(4-Ethyl-8-(2,3,5-trifluorophenyl)quinolin-3-yl)chroman-4-carboxamide], for which, in assay [1], the inhibition at 1 µg/mL is over 80% and the inhibition at 10 µg/mL is over 80%. In addition, the EC50 in assay [3] is under 0.1 µg/mL. The EC50 on D. immitis Slo-1 was in the range of 100 to 1000 nM.
`O=C(Nc1cnc2c(-c3cc(F)cc(F)c3F)cccc2c1C1CCOCC1)C1CCOc2ccccc21` (racemic) [Example 9, N-(4-(Tetrahydro-2H-pyran-4-yl)-8-(2,3,5-trifluorophenyl)quinolin-3-yl)chroman-4-carboxamide]: the inhibition at 1 µg/mL in assay [1] was over 80%. Besides, the inhibition at 10 µg/mL in assay [1] is over 80%. The inhibition at 0.1 µg/mL in assay [2] is over 80%. The values for the EC50 (in assay [3]; at D. immitis Slo-1; in assay [4]) were under 0.1 µg/mL, 100 to 1000 nM and under 0.1 µg/mL, respectively.
As to `O=C(Nc1cnc2c(-c3cc(F)cc(F)c3F)c(F)ccc2c1C1CCOCC1)C1CCOc2ccccc21` (racemic) [Example 10, N-(7-Fluoro-4-(tetrahydro-2H-pyran-4-yl)-8-(2,3,5-trifluorophenyl)quinolin-3-yl)chroman-4-carboxamide], the inhibition at 1 µg/mL in assay [1] is over 80%. The inhibition at 10 µg/mL in assay [1] was over 80%. Also, the inhibition at 0.1 µg/mL in assay [2] was over 80%. In addition, the EC50 is under 0.1 µg/mL in assay [3], 10 to 100 nM on D. immitis Slo-1 and under 0.1 µg/mL in assay [4].
As to `CN(C)c1c(NC(=O)C2CCOc3ccccc32)cnc2c(-c3cc(F)cc(F)c3F)c(F)ccc12` (racemic) [Example 11, N-(4-(dimethylamino)-7-fluoro-8-(2,3,5-trifluorophenyl)quinolin-3-yl)chroman-4-carboxamide], in assay [1], the inhibition at 1 µg/mL is over 80%. Besides, the inhibition at 10 µg/mL in assay [1] is over 80%. In addition, in assay [2], the inhibition at 0.1 µg/mL was over 80%. Further, the EC50 in assay [3] was under 0.1 µg/mL; on D. immitis Slo-1, 10 to 100 nM; in assay [4], under 0.1 µg/mL.
On to `CN(C)c1c(NC(=O)C2CCc3ccccc32)cnc2c(-c3cc(F)cc(F)c3F)c(F)ccc12` (racemic) [Example 12, N-(4-(dimethylamino)-7-fluoro-8-(2,3,5-trifluorophenyl)quinolin-3-yl)-2,3-dihydro-1H-indene-1-carboxamide], for which the EC50 in assay [3] was under 0.1 µg/mL; at D. immitis Slo-1, 100 to 1000 nM; in assay [4] it was under 0.1 µg/mL.
Turning to `CCc1c(NC(=O)C2CCOc3ccccc32)cnc2c(-c3cc(F)cc(F)c3F)c(F)ccc12` (racemic) [Example 13, N-(4-ethyl-7-fluoro-8-(2,3,5-trifluorophenyl)quinolin-3-yl)chromane-4-carboxamide], the inhibition at 1 µg/mL in assay [1] is over 80%. In assay [1], the inhibition at 10 µg/mL is over 80%. The inhibition at 0.1 µg/mL in assay [2] is over 80%. The EC50 in assay [3] was under 0.1 µg/mL; on D. immitis Slo-1 it was 10 to 100 nM; in assay [4], under 0.1 µg/mL.
As to `O=C(Nc1cnc2c(-c3cc(Cl)cc(Cl)c3)cccc2c1C1CCOCC1)C1CCc2ccccc21` (racemic) [Example 14, N-(8-(3,5-dichlorophenyl)-4-(tetrahydro-2H-pyran-4-yl)quinolin-3-yl)-2,3-dihydro-1H-indene-1-carboxamide], the inhibition at 1 µg/mL in assay [1] is over 80%. Besides, the inhibition at 10 µg/mL in assay [1] is over 80%. Moreover, the inhibition at 0.1 µg/mL in assay [2] is over 80%. The EC50 is under 0.1 µg/mL in assay [3], 100 to 1000 nM on D. immitis Slo-1 and under 0.1 µg/mL in assay [4].
For `O=C(Nc1cnc2c(-c3cc(Cl)cc(Cl)c3)c(F)ccc2c1N1CCOCC1)C1CCOc2ccccc21` (racemic) [Example 15, N-(8-(3,5-dichlorophenyl)-7-fluoro-4-morpholinoquinolin-3-yl)chromane-4-carboxamide], the inhibition at 1 µg/mL in assay [1] is over 80%. Moreover, in assay [1], the inhibition at 10 µg/mL was over 80%. In addition, the results for the EC50 (in assay [3]; at D. immitis Slo-1; in assay [4]) were under 0.1 µg/mL, 10 to 100 nM and under 0.1 µg/mL, respectively.
Regarding `CCc1c(NC(=O)C2CCOc3ccccc32)cnc2c(-c3cc(Cl)cc(Cl)c3)c(F)ccc12` (racemic) [Example 16, N-(8-(3,5-dichlorophenyl)-4-ethyl-7-fluoroquinolin-3-yl)chromane-4-carboxamide], in assay [1], the inhibition at 1 µg/mL is over 80%. Besides, in assay [1], the inhibition at 10 µg/mL was over 80%. Moreover, the inhibition at 0.1 µg/mL in assay [2] is over 80%. The EC50 in assay [3] is under 0.1 µg/mL; at D. immitis Slo-1, 100 to 1000 nM; in assay [4] it was under 0.1 µg/mL.
Take `CN(C)c1c(NC(=O)C2CCOc3ccccc32)cnc2c(-c3cccc(Cl)c3Cl)c(F)ccc12` (racemic) [Example 17, N-(8-(2,3-dichlorophenyl)-4-(dimethylamino)-7-fluoroquinolin-3-yl)chroman-4-carboxamide]: in assay [1], the inhibition at 1 µg/mL is over 80%. Moreover, the inhibition at 10 µg/mL in assay [1] is over 80%. Moreover, the inhibition at 0.1 µg/mL in assay [2] was over 80%. The values for the EC50 (in assay [3]; at D. immitis Slo-1; in assay [4]) were under 0.1 µg/mL, 100 to 1000 nM and under 0.1 µg/mL, respectively.
`CN(C)c1c(NC(=O)C2CCc3ccccc32)cnc2c(-c3cccc(Cl)c3Cl)c(F)ccc12` (racemic) [Example 18, N-(8-(2,3-dichlorophenyl)-4-(dimethylamino)-7-fluoroquinolin-3-yl)-2,3-dihydro-1H-indene-1-carboxamide]: the inhibition at 1 µg/mL in assay [1] was over 80%. In assay [1], the inhibition at 10 µg/mL is over 80%. Besides, the EC50 is under 0.1 µg/mL in assay [3], 100 to 1000 nM on D. immitis Slo-1 and under 0.1 µg/mL in assay [4].
For the molecule `CN(C)c1c(NC(=O)[C@H]2CCOc3ccccc32)cnc2c(-c3cc(F)cc(F)c3F)cccc12` [Example 1, (S)-N-(4-(dimethylamino)-8-(2,3,5-trifluorophenyl)quinolin-3-yl)chromane-4-carboxamide], the inhibition at 1 µg/mL in assay [1] was over 80%. Moreover, the inhibition at 10 µg/mL in assay [1] was over 80%. The results for the EC50 (in assay [3]; at D. immitis Slo-1; in assay [4]) were under 0.1 µg/mL, 100 to 1000 nM and under 0.1 µg/mL, respectively.
Turning to `CN(C)c1c(NC(=O)[C@@H]2CCc3ccccc32)cnc2c(-c3cc(F)cc(F)c3F)cccc12` [Example 4, (R)-N-(4-(dimethylamino)-8-(2,3,5-trifluorophenyl)quinolin-3-yl)-2,3-dihydro-1H-indene-1-carboxamide], the EC50 was under 0.1 µg/mL in assay [3], 100 to 1000 nM on D. immitis Slo-1 and under 0.1 µg/mL in assay [4].
